How the values were obtained:
Format in all cases: cell-based
C32 (Melanoma) = experiment: Cancer cell lines assay (Alamar Blue, day 5), C32; conditions: Homo sapiens, C32 cells
Description: (§1) EXAMPLE. Cancer cell lines assay. Compounds are assayed for IC50 over a range of 50 nM to 1 mM, in triplicate, in standard 96-well plates. Initially, the number of cells in each line to plate on day 0 is determined, in order to have <80% confluency on day 5. Cells are plated on day 0. Cells are allowed to adhere 4 hours prior to adding the compound. On day 5 Alamar Blue is added to the media of the cells at 10% of the total volume of the well and incubated for approximately 4 hours at tissue culture conditions. The Alamar Blue reagent consists of an oxidation-reduction indicator that yields a colorimetric change and a fluorescent signal in response to metabolic activity. The dose response curves is evaluated in a BioTek Synergy 2 plate reader. The readout fluorescence values are then be exported to spreedsheet software, such as Microsoft Excel or GraphPad, and are graphed to show the reduction in relative cell number in response to compounds added to culture. Maximum inhibition is expressed as the maximum of:
(§2) [formula] over all dosages tested for each drug.
(§3) EXAMPLE. Linezolid is diluted in DMSO. One vial is thawed and administered on day 0, at concentrations 10 μM to 1 mM. Paclitaxel (0.1 μM) is used as a positive control. DMSO alone is used as a negative control. […]

SW-579 (Thyroid Cancer) = experiment: Cancer cell lines assay (Alamar Blue, day 5), SW-579; conditions: SW579; SW-579 cells, Linezolid concentration 412 μM, negative control DMSO, p 0.0490; read-out: Linezolid % Maximum inhibition relative to negative control
Description: as §1, §2, §3

HT-144 (Melanoma) = experiment: Cancer cell lines assay (Alamar Blue, day 5), HT-144; conditions: Homo sapiens
Description: as §1, §2
(§4) EXAMPLE. Linezolid is diluted in DMSO. One vial is thawed and administered on day 0, at concentrations 10 μM to 1 mM. Paclitaxel (0.1 μM) is used as a positive control. DMSO alone is used as a negative control. On day 5 Alamar Blue is added to the media of the cells at 10% of the total volume of the well and incubated for approximately 4 hours at tissue culture conditions.

A172 (Malignant glioma) = experiment: Cancer cell lines assay (Alamar Blue, day 5), A172; conditions: Homo sapiens
Description: as §1, §2, §4

Structure (SMILES): CC(=O)NC[C@H]1CN(c2ccc(N3CCOCC3)c(F)c2)C(=O)O1 [Linezolid]
- inhibition at 1000 µM (C32 (Melanoma); Linezolid concentration 1 mM, negative control DMSO, p 0.000720, read-out: Linezolid % Maximum inhibition relative to negative control): 26.1%
- inhibition at 412 µM (SW-579 (Thyroid Cancer)): 14.5%
- IC50 (HT-144 (Melanoma); 120 h, HT-144 (Melanoma) cells, Alamar Blue on day 5, read-out: Linezolid IC50): 500 µM
- inhibition at 1000 µM (HT-144 (Melanoma); HT-144 cells, Linezolid concentration 1 mM, negative control DMSO, p 0.00250, read-out: Linezolid % Maximum inhibition relative to negative control): 90.7%
- IC50 (A172 (Malignant glioma); A 172, 120 h, A172 (Malignant glioma) cells, Alamar Blue on day 5, read-out: Linezolid IC50): 600 to 700 µM
- inhibition at 1000 µM (A172 (Malignant glioma); A 172, A172 cells, Linezolid concentration 1 mM, negative control DMSO, p 6 × 10^−6, read-out: Linezolid % Maximum inhibition relative to negative control): 81.8%

Structure (SMILES): CC(=O)O[C@H]1C(=O)[C@@]2(C)[C@H]([C@H](OC(=O)c3ccccc3)[C@]3(O)C[C@H](OC(=O)[C@H](O)[C@@H](NC(=O)c4ccccc4)c4ccccc4)C(C)=C1C3(C)C)[C@]1(OC(C)=O)CO[C@@H]1C[C@@H]2O [Paclitaxel]
- inhibition at 0.1 µM (C32 (Melanoma); 0.1 μM paclitaxel (positive control), read-out: Paclitaxel % Maximum inhibition relative to negative control): 90.8%
- inhibition at 0.1 µM (HT-144 (Melanoma); HT-144 cells, 0.1 μM paclitaxel (positive control), read-out: Paclitaxel % Maximum inhibition relative to negative control): 86.9%
- inhibition at 0.1 µM (A172 (Malignant glioma); A 172, A172 cells, 0.1 μM paclitaxel (positive control), read-out: Paclitaxel % Maximum inhibition relative to negative control): 92.9%
